Measurements taken from patent US7063861B2, “Bioavailable composition of natural and synthetic HCA” (Sabinsa Corporation, priority 2000, dated 2006).

Experiments:
[1] = system: TPA-induced ear edema; experiment: TPA-induced ear edema in female CF-1 mice; assay type: in vivo; conditions: 5 hours; for Weight per punch: mean ± SE
Procedure: The role of garcinol as a chemopreventive agent has been confirmed in an experiment in which CF-1 mice were treated topically with the inflammation and tumor promoting agent, TPA. [table]

[2] = Oral administration of garcinol, HCA and combination: body weight, food and fluid consumption in SKH-1 mice; assay type: in vivo; conditions: 0.05% GAR, 1% HCA, Mean ± SE
[3] = Body weight and accumulation of fat in abdomen in CF-1 mice, 10 week oral administration; assay type: in vivo; conditions: 0.05% GAR, 1% HCA; for Body weight: AOM
[4] = system: azoxymethane (AOM)-induced formation of aberrant colonic crypts (AC); experiment: Azoxymethane (AOM)-induced formation of aberrant colonic crypts in CF-1 mice; assay type: in vivo; conditions: 10 week oral, 0.05% GAR, 1% HCA
[5] = oral, before the feeding period; versus untreated controls; cited from earlier work
[6] = rats fed (−) HCA; cited from earlier work
[7] = system: ATP citrate lyase enzyme; conditions: in vitro, purified enzyme; cited from earlier work
[8] = biological target: T1, ATP citrate lyase (Homo sapiens, UniProt P53396); experiment: Inhibition of ATP citrate lyase in hepatic cells in vitro; assay type: cell-based; conditions: extracellular versus cytosol
T1 construct: an in vitro study done on hepatic cells; endogenous in cells; host or cells: hepatic cells (species and cell type not specified)
T1 sequence (P53396 1-1101): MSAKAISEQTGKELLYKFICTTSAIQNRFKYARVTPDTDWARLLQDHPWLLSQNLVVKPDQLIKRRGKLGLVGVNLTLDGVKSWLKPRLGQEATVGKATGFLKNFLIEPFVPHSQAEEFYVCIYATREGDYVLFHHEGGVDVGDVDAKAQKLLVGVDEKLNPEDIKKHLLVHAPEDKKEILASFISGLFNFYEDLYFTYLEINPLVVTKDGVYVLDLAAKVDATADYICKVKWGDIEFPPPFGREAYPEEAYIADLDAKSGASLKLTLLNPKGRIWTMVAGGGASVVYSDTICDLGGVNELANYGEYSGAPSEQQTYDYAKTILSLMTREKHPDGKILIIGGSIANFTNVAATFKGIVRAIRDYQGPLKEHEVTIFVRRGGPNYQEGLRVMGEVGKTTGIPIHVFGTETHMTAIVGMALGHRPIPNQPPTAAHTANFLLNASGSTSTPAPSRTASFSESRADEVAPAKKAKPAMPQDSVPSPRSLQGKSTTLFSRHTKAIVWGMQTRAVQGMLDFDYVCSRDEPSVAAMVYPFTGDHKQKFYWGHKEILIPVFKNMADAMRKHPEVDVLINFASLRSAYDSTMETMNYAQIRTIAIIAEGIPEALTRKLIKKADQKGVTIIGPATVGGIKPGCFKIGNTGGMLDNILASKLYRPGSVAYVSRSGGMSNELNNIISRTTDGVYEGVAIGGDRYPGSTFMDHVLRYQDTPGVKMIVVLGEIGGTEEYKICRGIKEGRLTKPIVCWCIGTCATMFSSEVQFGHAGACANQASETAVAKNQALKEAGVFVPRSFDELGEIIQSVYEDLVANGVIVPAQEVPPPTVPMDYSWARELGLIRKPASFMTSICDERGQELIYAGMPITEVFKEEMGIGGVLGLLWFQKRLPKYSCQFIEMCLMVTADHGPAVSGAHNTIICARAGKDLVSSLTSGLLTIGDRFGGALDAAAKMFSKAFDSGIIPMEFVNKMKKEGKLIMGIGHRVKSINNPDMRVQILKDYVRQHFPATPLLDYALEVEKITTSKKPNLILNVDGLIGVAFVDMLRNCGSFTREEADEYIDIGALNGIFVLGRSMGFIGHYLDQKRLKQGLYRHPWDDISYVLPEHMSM
From the text: In their U.S. Patent, the Inventors addressed an important issue regarding the bioavailability of the HCA compounds. The U.S. Pat. No. 5,783,603 patent described a manufacturing process leading to a unique structure for a potassium salt of HCA, which facilitated its transport across biological membranes, effectively delivering more HCA into the cytosol for the competitive inhibition of ATP citrate lyase. […] Therefore, a 10-fold excess amount of potassium HCA is needed outside of the target cell in order to achieve a concentration of 1/10 that amount in the cytosol. This finding of relatively poor bioavailability of HCA, was confirmed in pre-clinical experiments (14), and points out the need to further improve the bioavailability and efficacy of HCA.

[9] = biological target: T1, ATP citrate lyase; conditions: cited from earlier work
[10] = TPA 1 nmol + GAR 0.1 umol topical on ear
[11] = TPA 1 nmol + GAR 0.5 umol topical on ear

Row | excess needed outside the target cell over cytosol concentration [8] | Structure (SMILES) | Percent Inhibition of ear edema [1, 10] | Weight per punch [1, 10] | Percent Inhibition of ear edema [1, 11] | Weight per punch [1, 11] | Body weight ([2]; 5 weeks) | Body weight ([2]; 7 weeks) | Body weight ([2]; 10 weeks) | parametrial fat [3] | retroperitoneal fat [3] | Body weight [3] | AC per colon [4] | AC per colon, percentage in parentheses (reduction versus control) [4] | food intake [5] | hepatic synthesis of fatty acids and cholesterol [5] | weight loss and cumulative food intake [6] | inhibition of ATP citrate lyase enzyme [7] | concentration needed in the cytosol to effectively inhibit ATP citrate lyase ([9]; cytosol) | extracellular concentration that could inhibit ATP citrate lyase ([9]; hepatic cells, extracellular)
1 |  | C=C(C)[C@@H](CC=C(C)C)C[C@@]12C[C@@H](CC=C(C)C)C(C)(C)[C@@](CC=C(C)C)(C(=O)C(C(=O)c3ccc(O)c(O)c3)=C1O)C2=O [GAR, garcinol] | 38.5% | 12.4 ± 0.81 mg | 77.5% | 9.25 ± 0.66 mg | 32.8 ± 0.37 gm | 33.9 ± 0.14 gm | 36.4 ± 0.55 gm | 1.21 ± 0.18 gm | 0.85 ± 0.01 gm | 37.3 ± 1.07 gm | 7.8 | 31.6% |  |  |  |  |  | 
2 |  | O=C(O)CC(O)(C(=O)O)C(O)C(=O)O (stereo not drawn) [HCA, 1,2-dihydroxypropane-1,2,3-tricarboxylic acid] |  |  |  |  | 32.5 ± 0.42 gm | 34.5 ± 0.59 gm | 36.8 ± 0.33 gm | 1.24 ± 0.06 gm | 0.79 ± 0.04 gm | 37.9 ± 0.66 gm | 7.9 | 30.7% | consumed less food | significantly diminished | weight loss with no decrease in cumulative food intake | potent linear competitive inhibitor |  | 
3 | 10 fold | O=C([O-])CC(O)(C(=O)[O-])C(O)C(=O)[O-].[K+].[K+].[K+] (stereo not drawn) [potassium HCA] |  |  |  |  |  |  |  |  |  |  |  |  |  |  |  |  | 0.5 mM | 5 mM
